Laboratory results published in article PMC2754045 (Biochemistry, 2009).

What was measured:
[1] = test system: mTR-GCCG; format: biochemical, mouse; conditions: mTR-GCCG versus mTR-GCUG
[2] = test system: mTR-GCCG; conditions: for Activity lower than that of the wild type enzyme: Sec to Cys mutant versus WT, pH 7.0

SMILES: CC(=O)OC[C@H]1O[C@@H]([S-])[C@H](OC(C)=O)[C@@H](OC(C)=O)[C@@H]1OC(C)=O.CCP(CC)CC.[Au+] [auranofin]
- IC50 increase on mutation of Sec to Cys [1]: 4 fold

SMILES: O=[Se]([O-])[O-].[Na+].[Na+] [selenite, sodium selenite]
- Activity lower than that of the wild type enzyme [2]: ~ 2 fold

SMILES: N[C@@H](C[Se][Se]C[C@H](N)C(=O)O)C(=O)O [selenocystine]
- Activity lower than that of the wild type enzyme [2]: 3.7 fold

SMILES: O=C(O)CCCC[C@@H]1CCSS1 [Lipoic Acid, lipoic acid]
- Km increase in the Cys2 mutant ([2]; versus full-length WT enzyme): 2.3 fold

SMILES: OC[C@H]1O[C@H]([S-])[C@H](O)[C@@H](O)[C@@H]1O.[Au+] [aurothioglucose]
- IC50 increase on mutation of Sec to Cys [1]: 1.7 fold
